Laboratory results as given in the NIST ThermoML archive (doi:10.1021/acs.jced.5b00393).
± gives the expanded uncertainty stated by the source.

Columns and labels:
[1] = refractive index (Na D-line) (dimensionless); mn = molality of the nth substance listed, in mol/kg; conditions: 298.15 K, 101 kPa, Liquid, Standard Abbe refractometry
[2] = mn = molality of the nth substance listed, in mol/kg; conditions: 298.15 K, 101 kPa, Liquid, Pycnometric method

SMILES | refractive index ([1]; m1 = 4.734) | mass density ([2]; m1 = 4.734) [kg/m3] | refractive index ([1]; m1 = 1.821) | mass density ([2]; m1 = 1.821) [kg/m3]
NCCCC[C@H](N)C(=O)O [L-lysine] + O | 1.4155 ± 0.0004 | 1242.1 ± 1.1 | – | –
N[C@@H](CS)C(=O)O [(R)-2-amino-3-mercaptopropanoic acid] + O | – | – | 1.3439 ± 0.0004 | 1074.1 ± 1.1
